From patent publication US20170226072A1, “1,4-Disubstituted Piperidines, 1,4-Disubstituted Piperazines, 1,4-Disubstituted Diazepines, and 1,3-Disubstituted Pyrrolidine Compounds” (University of Kentucky Research Foundation, priority 2013, published 2017)

Assays:
VMAT2 [1] = target: T1, VMAT2 (Rattus norvegicus, UniProt Q01827); assay: [3H]Dihydrotetrabenazine ([3H]DTBZ) binding assay, vesicular preparation; settings: rat brain synaptic vesicles, 3 nM [3H]DTBZ; read-out: Inhibition of [3H]DTBZ binding (Ki) VMAT2
T1 construct: conducted using isolated synaptic vesicle preparations; from tissue; host or cells: rat striatum, isolated synaptic vesicles
T1 sequence (Q01827 whole entry): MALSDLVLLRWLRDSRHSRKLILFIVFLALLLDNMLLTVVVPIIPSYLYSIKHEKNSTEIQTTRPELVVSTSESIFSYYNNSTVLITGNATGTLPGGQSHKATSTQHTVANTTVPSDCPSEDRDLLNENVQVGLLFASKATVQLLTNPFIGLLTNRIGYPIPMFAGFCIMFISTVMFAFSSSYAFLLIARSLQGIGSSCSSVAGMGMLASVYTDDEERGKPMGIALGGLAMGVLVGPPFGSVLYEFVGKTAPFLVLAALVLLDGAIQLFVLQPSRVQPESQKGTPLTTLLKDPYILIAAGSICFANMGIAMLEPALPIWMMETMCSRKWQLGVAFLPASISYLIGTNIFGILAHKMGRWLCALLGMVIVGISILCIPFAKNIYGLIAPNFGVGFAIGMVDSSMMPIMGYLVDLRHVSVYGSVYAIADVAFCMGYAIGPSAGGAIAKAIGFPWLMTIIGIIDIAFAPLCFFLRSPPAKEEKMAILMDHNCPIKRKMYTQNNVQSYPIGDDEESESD
Method: [^3H]Dihydrotetrabenazine ([^3H]DTBZ) Binding Assay, Vesicular Preparation
The resulting supernatant (S1) was then centrifuged at 22,000 g for 10 min at 4° C. The synaptosomal pellets (P2) were homogenized in 18 mL of ice-cold Milli-Q water and exposed for 5 min for lysing synaptosomes. Osmolarity was restored by addition of 2 mL of 25 mM HEPES with 100 mM dipotassium tartrate (pH 7.5). Samples were centrifuged at 20,000 g for 20 min at 4° C. to remove lysed synaptosomal membranes. MgSO4 (1 mM) was added to the supernatant (S3), and was centrifuged at 100,000 g for 45 min at 4° C. […] Aliquot parts (100 μL) of suspension of vesicle membrane protein were incubated in assay buffer (25 mM HEPES, 100 mM dipotassium tartrate, 5 mM MgSO4, 0.1 mM EDTA and 0.05 mM EGTA, pH 7.5, at 25° C.) in the presence of 3 nM [^3H]DTBZ and at least 7 concentrations (1 nM-1 mM) of compound for 1 hr at room temperature. Nonspecific binding was determined in the presence of 20 μM tetrabenazine, a standard compound. Assays were performed in duplicate using a 96-well plate format. Reactions were terminated by filtration of samples on a Unifilter-96 GF/B filter plates (presoaked in 0.5% polyethylenimine), using a FilterMate harvester (Packard BioScience Co., Meriden, Conn.).
After washing 5 times with 350 μL of the ice-cold wash buffer (25 mM HEPES, 100 mM dipotassium tartrate, 5 mM MgSO4 and 10 mM NaCl, pH 7.5), filter plates were dried, sealed and each well filled with 40 μL Packard's MicroScint 20 cocktail. Bound [^3H]DTBZ was measured using a Packard TopCount NXT scintillation counter with a Packard Windows NT based operating system.

VMAT2 [2] = target: T1, VMAT2; assay: [3H]Dopamine ([3H]DA) uptake assay, vesicular preparation; type: biochemical
Method: [^3H]Dopamine ([^3H]DA) Uptake Assay, Vesicular Preparation
Homogenates were centrifuged (2,000 g for 10 min at 4° C.), and then the supernatants were centrifuged (10,000 g for 30 min at 4° C.). Pellets were resuspended in 2 ml of 0.32 M sucrose solution and subjected to osmotic shock by adding 7 ml of ice-cold MilliQ water to the preparation. After 1 min, osmolarity was restored by adding 900 μl of 0.25 M HEPES buffer and 900 μl of 1.0 M potassium tartrate solution. Samples were centrifuged (20,000 g for 20 min at 4° C.), and the supernatants were centrifuged (55,000 g for 1 hr at 4° C.), followed by addition of 100 μl of 10 mM MgSO4, 100 μl of 0.25 M HEPES and 100 μl of 1.0 M potassium tartrate solution prior to the final centrifugation (100,000 g for 45 min at 4° C.). Final pellets were resuspended in 2.4 ml of assay buffer (25 mM HEPES, 100 mM potassium tartrate, 50 μM EGTA, 100 μM EDTA, 1.7 mM ascorbic acid, 2 mM ATP-Mg^2+, pH 7.4). Aliquots of the vesicular suspension (100 μl) were added to tubes containing assay buffer, various concentrations of compound (0.1 nM-10 mM) and 0.1 μM [^3H]DA in a final volume of 500 and incubated at 37° C. for 8 min. […] Reactions were terminated by filtration, and radioactivity retained by the filters was determined by liquid scintillation spectrometry (Tri-Carb 2100TR liquid scintillation analyzer; PerkinElmer Life and Analytical Sciences, Boston, Mass.).

hERG channel = target: T2, hERG channel (Homo sapiens, UniProt Q12809); assay: [3H]Dofetilide binding assay, HEK-293 cell membrane preparation; settings: HEK-293 cell membranes expressing hERG, 5 nM [3H]dofetilide; read-out: hERG [3H]Dofetilide Binding Inhibition Mean ± SEM (IC50)
T2 construct: expressed in transfected cells
T2 sequence (Q12809 whole entry): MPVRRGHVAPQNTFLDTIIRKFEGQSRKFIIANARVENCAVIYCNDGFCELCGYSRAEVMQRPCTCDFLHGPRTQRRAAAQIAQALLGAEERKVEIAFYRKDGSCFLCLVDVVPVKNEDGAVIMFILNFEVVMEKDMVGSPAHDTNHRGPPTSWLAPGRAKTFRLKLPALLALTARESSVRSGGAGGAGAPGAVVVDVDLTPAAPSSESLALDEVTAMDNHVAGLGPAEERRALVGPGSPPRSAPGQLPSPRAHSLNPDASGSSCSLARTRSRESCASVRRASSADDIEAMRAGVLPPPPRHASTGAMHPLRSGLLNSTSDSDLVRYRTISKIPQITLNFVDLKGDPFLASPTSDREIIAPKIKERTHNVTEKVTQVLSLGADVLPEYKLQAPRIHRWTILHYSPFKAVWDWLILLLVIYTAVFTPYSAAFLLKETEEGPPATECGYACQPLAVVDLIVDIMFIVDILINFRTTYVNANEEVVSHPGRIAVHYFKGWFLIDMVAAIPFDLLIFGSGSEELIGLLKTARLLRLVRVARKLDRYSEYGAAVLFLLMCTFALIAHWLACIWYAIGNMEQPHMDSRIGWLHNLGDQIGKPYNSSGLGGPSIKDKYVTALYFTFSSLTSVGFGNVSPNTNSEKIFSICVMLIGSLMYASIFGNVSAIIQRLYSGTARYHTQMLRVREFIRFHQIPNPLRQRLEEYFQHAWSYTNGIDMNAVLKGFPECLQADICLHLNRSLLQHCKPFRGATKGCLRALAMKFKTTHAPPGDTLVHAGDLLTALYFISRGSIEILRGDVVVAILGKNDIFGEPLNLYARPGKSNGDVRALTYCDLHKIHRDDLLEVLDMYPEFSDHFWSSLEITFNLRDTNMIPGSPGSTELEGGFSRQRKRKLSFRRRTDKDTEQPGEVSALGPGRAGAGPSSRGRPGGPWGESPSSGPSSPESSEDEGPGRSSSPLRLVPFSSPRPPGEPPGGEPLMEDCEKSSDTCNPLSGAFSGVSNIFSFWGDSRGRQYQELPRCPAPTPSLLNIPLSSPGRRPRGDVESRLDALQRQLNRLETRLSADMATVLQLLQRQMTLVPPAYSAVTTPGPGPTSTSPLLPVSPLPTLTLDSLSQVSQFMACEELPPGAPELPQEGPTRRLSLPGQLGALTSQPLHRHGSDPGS
Method: [^3H]Dofetilide Binding Assay, HEK-293 Cell Membrane Preparation
[^3H]Dofetilide binding assays were conducted using commercially available HEK-293 cell membranes which stably express the hERG channel. Membranes were suspended in assay buffer (50 mM Tris, 10 mM KCl, 1 mM MgCl2, pH 7.4) prior to the experiment. Assays were performed in duplicate in a total volume of 250 μL. Aliquots of the HEK-293 cell membrane suspension which contained 5 μg membrane protein were added to tubes containing assay buffer, 5 nM [^3H]dofetilide and a range of concentrations of analog (10 nM-100 μM). Nonspecific binding was determined in the presence of amitriptyline (1 mM). Samples were incubated for 1 hr. at 24° C., followed by rapid filtration. Radioactivity retained by the filters was determined by liquid scintillation spectrometry as described above for the [^3H]DA uptake assay. The affinity for the [^3H]dofetilide binding site on the hERG channel expressed in the HEK-293 cellular membrane was determined from the analog concentration response curves.

[3] = target: T3, dopamine transporter (DAT) (Rattus norvegicus, UniProt P23977); assay: [3H]DA uptake assay, striatal synaptosomal preparation; type: biochemical; settings: rat striatal synaptosomes; read-out: DAT [3H]DA Uptake Inhibition Mean ± SEM (Ki)
T3 construct: from tissue; host or cells: rat striatum, synaptosomes
T3 sequence (P23977 whole entry): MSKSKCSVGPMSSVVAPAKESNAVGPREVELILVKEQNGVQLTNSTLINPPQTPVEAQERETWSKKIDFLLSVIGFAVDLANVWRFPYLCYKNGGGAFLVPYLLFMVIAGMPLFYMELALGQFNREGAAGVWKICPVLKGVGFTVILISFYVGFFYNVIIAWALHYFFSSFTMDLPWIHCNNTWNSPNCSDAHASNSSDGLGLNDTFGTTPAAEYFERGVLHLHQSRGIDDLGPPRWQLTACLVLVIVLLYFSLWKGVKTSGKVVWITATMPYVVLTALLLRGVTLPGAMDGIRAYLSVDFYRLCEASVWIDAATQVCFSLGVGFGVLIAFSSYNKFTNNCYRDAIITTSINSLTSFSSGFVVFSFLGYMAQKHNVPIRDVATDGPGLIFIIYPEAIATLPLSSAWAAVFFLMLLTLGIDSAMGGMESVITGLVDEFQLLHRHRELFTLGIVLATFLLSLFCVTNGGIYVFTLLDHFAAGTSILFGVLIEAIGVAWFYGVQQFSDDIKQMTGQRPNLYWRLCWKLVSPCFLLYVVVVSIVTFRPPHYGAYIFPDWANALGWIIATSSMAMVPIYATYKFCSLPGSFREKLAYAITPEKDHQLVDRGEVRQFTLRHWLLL
Method: (§1) [^3H]DA and [^3H]5-HT Uptake Assay, Synaptosomal Preparation
(§2) [^3H]DA and [^3H]5-HT uptake into striatal synaptosomes was determined to evaluate compound inhibition of the dopamine transporter (DAT) and the serotonin transporter (SERT), respectively. […] Homogenates were centrifuged at 2000 g for 10 min at 4° C., and resulting supernatants were centrifuged at 20,000 g for 17 min at 4° C. […] Assays were performed in duplicate in a total volume of 500 (for DAT assays) or 250 μL (for SERT assays). […] Reactions were terminated by addition of 3 mL of ice-cold assay buffer and subsequent filtration and radioactivity retained by the filters was determined by liquid scintillation spectrometry (Tri-Carb 2100TR liquid scintillation analyzer; PerkinElmer Life and Analytical Sciences, Boston, Mass.).

[4] = target: T4, serotonin transporter (SERT) (Rattus norvegicus, UniProt P31652); assay: [3H]5-HT uptake assay, striatal synaptosomal preparation; type: biochemical; settings: rat striatal synaptosomes, GBR-12935 (100 nM) in buffer; read-out: SERT [3H]5-HT Uptake Inhibition Mean ± SEM (Ki)
T4 construct: from tissue
T4 sequence (P31652 whole entry): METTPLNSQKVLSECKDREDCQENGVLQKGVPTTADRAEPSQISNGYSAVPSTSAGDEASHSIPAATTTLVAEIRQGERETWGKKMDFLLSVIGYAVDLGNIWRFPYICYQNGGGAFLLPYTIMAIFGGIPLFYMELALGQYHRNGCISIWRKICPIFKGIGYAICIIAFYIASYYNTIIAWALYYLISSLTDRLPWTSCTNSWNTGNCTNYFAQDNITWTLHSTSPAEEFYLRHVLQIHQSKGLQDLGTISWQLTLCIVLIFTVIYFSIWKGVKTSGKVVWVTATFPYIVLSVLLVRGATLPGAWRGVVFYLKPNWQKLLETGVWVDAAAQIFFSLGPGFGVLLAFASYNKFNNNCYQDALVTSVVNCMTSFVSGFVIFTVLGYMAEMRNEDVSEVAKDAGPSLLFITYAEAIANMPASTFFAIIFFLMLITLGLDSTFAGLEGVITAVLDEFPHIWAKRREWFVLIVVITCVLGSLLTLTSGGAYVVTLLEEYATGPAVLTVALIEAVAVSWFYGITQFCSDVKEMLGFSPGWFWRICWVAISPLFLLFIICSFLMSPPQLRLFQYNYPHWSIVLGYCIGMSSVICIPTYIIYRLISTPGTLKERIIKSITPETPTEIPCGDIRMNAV
Method: as §1, §2

[5] = test system: VMAT2 over hERG, DAT and SERT; assay: Lead compound criteria: 30-fold selectivity for VMAT2 over hERG, DAT and SERT; settings: criterion: 30-fold selectivity for VMAT2 over hERG
Text: Accordingly, this test assessed the potential of the tested compounds to produce cardiac arrhythmias via interaction at this off-target site. The criterion for compounds to be considered leads was a 30-fold selectivity for VMAT2 over hERG.

[6] = rat striatal synaptic vesicles, 0.1 μM [3H]DA, read-out: [3H]DA Uptake (Ki) VMAT2
[7] = synaptic vesicle preparations, summary of Table 1, read-out: inhibition of [3H]DA uptake, Ki

COc1cccc(CCN2CCC(CCc3ccccc3)CC2)c1 [Compound 2]
Ki (VMAT2 [1]): 265 ± 38 nM
Ki (VMAT2 [2]; [6]): 22 ± 0.87 nM
IC50 (hERG channel): 489 ± 84.7 nM
Ki [3]: 3.13 ± 0.19 µM
Ki [4]: 1.15 ± 0.09 µM

COc1ccccc1CCC1CCN(CCc2ccccc2OC)CC1 [Compound 12, 1,4-bis(2-methoxyphenethyl)piperidine]
Ki (VMAT2 [1]): 190 ± 8.8 nM
Ki (VMAT2 [2]; [6]): 9.3 ± 0.6 nM
Ki (VMAT2 [2]; [7]): 9 to 20 nM
IC50 (hERG channel): 1070 ± 90.6 nM
Ki [3]: 3.45 ± 0.45 µM
Ki [4]: 0.12 ± 0.01 µM
lead compound status (30-fold selectivity for VMAT2 over hERG, DAT and SERT) [5]: successfully met the criteria for lead compound status

COc1ccccc1CCC1CCN(CCc2ccccc2)CC1 [Compound 13]
Ki (VMAT2 [1]): 690 ± 50 nM
Ki (VMAT2 [2]; [6]): 22 ± 2.8 nM
IC50 (hERG channel): 1650 ± 670 nM
Ki [3]: 3.56 ± 1.21 µM
Ki [4]: 0.75 ± 0.18 µM
lead compound status (30-fold selectivity for VMAT2 over hERG, DAT and SERT) [5]: successfully met the criteria for lead compound status

COc1ccc(CCC2CCN(CCc3ccccc3Cl)CC2)cc1 [Compound 24]
Ki (VMAT2 [1]): 230 ± 20 nM
Ki (VMAT2 [2]; [6]): 40 ± 7 nM
IC50 (hERG channel): 2090 ± 391 nM
Ki [3]: 5.16 ± 1.25 µM
Ki [4]: 4.15 ± 1.45 µM
lead compound status (30-fold selectivity for VMAT2 over hERG, DAT and SERT) [5]: successfully met the criteria for lead compound status

COc1ccccc1CCC1CCN(CCc2ccc(F)cc2)CC1 [Compound 29, 1-(4-fluorophenethyl)-4-(2-methoxyphenethyl)piperidine]
Ki (VMAT2 [1]): 400 ± 97 nM
Ki (VMAT2 [2]; [6]): 13 ± 2.1 nM
Ki (VMAT2 [2]; [7]): 9 to 20 nM
IC50 (hERG channel): 347 ± 18.8 nM
Ki [3]: 4.13 ± 0.44 µM
Ki [4]: 0.58 ± 0.07 µM

c1ccc(CCN2CCN(CCc3ccccc3)CC2)cc1 [Compound 54, 1,4-diphenethylpiperazine]
Ki (VMAT2 [1]): 3050 ± 640 nM
Ki (VMAT2 [2]; [6]): 110 ± 12 nM
IC50 (hERG channel): 3390 ± 1940 nM
Ki [3]: 13.6 ± 2.69 µM
Ki [4]: 11.4 ± 4.14 µM

COc1ccccc1CCN1CCN(CCc2ccccc2OC)CC1 [Compound 55]
IC50 (hERG channel): 1020 ± 180 nM
Ki [3]: 14.4 ± 0.456 µM
Ki [4]: 1.58 ± 0.415 µM

COc1cccc(CCN2CCN(CCc3cccc(OC)c3)CC2)c1 [Compound 56]
IC50 (hERG channel): 1490 ± 204 nM
Ki [3]: 7.9 ± 2.89 µM
Ki [4]: 3.62 ± 1.3 µM

Clc1ccccc1CCN1CCN(CCc2ccccc2Cl)CC1 [Compound 58]
IC50 (hERG channel): 1080 ± 175 nM
Ki [3]: 6.31 ± 1.01 µM
Ki [4]: 3.34 ± 1.53 µM

Fc1ccc(CCN2CCN(CCc3ccc(F)cc3)CC2)cc1 [Compound 59]
Ki (VMAT2 [1]): 3710 ± 480 nM
Ki (VMAT2 [2]; [6]): 58 ± 12 nM
IC50 (hERG channel): 362 ± 15.5 nM
Ki [3]: 6.58 ± 1.41 µM
Ki [4]: 4.95 ± 0.9 µM

COc1ccccc1CCN1CCN(CCc2ccccc2)CC1 [Compound 60]
IC50 (hERG channel): 3190 ± 327 nM
Ki [3]: 12.8 ± 4.46 µM
Ki [4]: 2.58 ± 0.415 µM

COc1cccc(CCN2CCN(CCc3ccccc3)CC2)c1 [Compound 61]
Ki (VMAT2 [1]): 1300 ± 330 nM
Ki (VMAT2 [2]; [6]): 98 ± 16 nM
IC50 (hERG channel): 4230 ± 860 nM
Ki [3]: 17.2 ± 4.52 µM
Ki [4]: 6.92 ± 1.35 µM
lead compound status (30-fold selectivity for VMAT2 over hERG, DAT and SERT) [5]: successfully met the criteria for lead compound status

COc1ccc(CCN2CCN(CCc3ccccc3)CC2)cc1 [Compound 62]
Ki (VMAT2 [1]): 4630 ± 1310 nM
Ki (VMAT2 [2]; [6]): 100 ± 11 nM
IC50 (hERG channel): 9190 ± 375 nM
Ki [3]: 11.6 ± 3.08 µM
Ki [4]: 3.72 ± 0.02 µM
lead compound status (30-fold selectivity for VMAT2 over hERG, DAT and SERT) [5]: successfully met the criteria for lead compound status

Fc1ccc(CCN2CCN(CCc3ccccc3)CC2)cc1 [Compound 64]
Ki (VMAT2 [1]): 3860 ± 1010 nM
Ki (VMAT2 [2]; [6]): 88 ± 6.9 nM
IC50 (hERG channel): 2290 ± 475 nM
Ki [3]: 8.04 ± 2.57 µM
Ki [4]: 4.46 ± 0.727 µM
